From patent publication US5849731A, “Indole derivatives and medical application thereof” (Toray Industries, Inc., priority 1995, dated 1998) come the findings set out here.

The target in assay [1] is T1, δ-opioid (Mus musculus, UniProt P32300).
T1 construct: Each of the vas deferens isolated from the mice was hung in a Magnus tube; from tissue; host or cells: isolated vas deferens of male ddy strain mice
In words: δ-opioid antagonism against DPDPE in mouse vas deferens (MVD). The class given is biochemical, mouse (male ddy strain). The following applies: for pA2: MVD, 100 nM sample compound added 20 minutes before cumulative DPDPE, Schild method. How it is done:
(§1) Using mouse vas deferens (MVD), antagonistic compounds were examined for antagonism against a δ-opioid agonist DPDPE, and agonistic compounds were examined for inhibitory activity against MVD contraction by electric stimulation, and for antagonism by a δ-opioid antagonist NTI.
(§2) Male ddy strain mice were used in this experiment. Each of the vas deferens isolated from the mice was hung in a Magnus tube which was filled with a Krebes-Henseleit solution (NaCl […]; KCl 4.7 mM; CaCl2 2.5 mM; KH2 PO4 1.1 mM; NaHCO3 25 mM; glucose 11 mM), and aerated with a gas of 5% carbon dioxide and 95% oxygen and maintained at 37° C. Electric stimulation was applied through upper and lower ring-shaped platinum electrodes at 0.1 Hz and 5.0 mS. Tissue contraction was recorded on a polygraph using an isometric transducer.
Initially, DPDPE was added in a cumulative manner to determine the IC50 value (concentration for 50% inhibition of contraction induced by electric stimulation). Next, 100 nM of a sample compound was added to the system beforehand, and 20 minutes later, DPDPE was added in a cumulative manner. According to the above procedure, the ratio of the IC50 value of DPDPE in the presence of the sample compound to that in the absence of it was determined, and the pA2 value was calculated in accordance with the Schild, et al.'s method [Schild, H. O., Br. J. Pharamacol. Chamother. 4, 277 (1949)].

A further assay has as its system capsaicin-induced cough. In words: Antitussive action in rat, capsaicin-induced cough. The format is in vivo. The following applies: ip, 0.5 h, dosage for 50% cough inhibition, intraperitoneal, 10% DMSO solution, 30 minutes after administration. How it is done: Evaluation of Antitussive Action in Rat as a Model for Capsaicin-Induced Cough
Cough was induced by forcing rats to inhale capsaicin (60 μM) which was nebulized by an ultrasonic nebulizer, and fed to caps over the rats' heads through silicone tubes by a respirator. Capsaicin was fed for inhalation at a rate of 70 times/min. and 10 ml each time.
Two hundred and seventy minutes before the drug administration, capsaicin was inhaled for 5 minutes, and inducement of coughing was confirmed during this period. Thirty minutes after the drug administration, capsaicin was inhaled for 5 minutes, and the number of induced coughs during capsaicin inhalation was counted. Antitussive effect was evaluated by determining an inhibitory ratio, namely, the ratio of the number of coughs after the drug administration to that before the drug administration. Capsaicin was dissolved in saline. Each drug was dissolved in a 10% DMSO solution and intraperitoneally administered. The effect of the drug is expressed with an ED50 value which is the dosage for 50% cough inhibition

Assay [2] addresses T1, δ-opioid. In words: δ-opioid agonism: inhibition of electrically stimulated mouse vas deferens (MVD) contraction, antagonism by NTI. The format is biochemical, mouse (male ddy strain). Also on record: Ke: unit not given here. The following applies: for Ke: against NTI added 20 minutes before, Ke=[NTI Concentration]/[(IC50 ratio)-1]. The method, then: as §1, §2
Initially, a sample compound was added in a cumulative manner to determine the IC50 value (concentration for 50% inhibition of contraction induced by electric stimulation). Next, […] was added to the system beforehand, and 20 minutes later, the sample compound was added in a cumulative manner. According to the above procedure, the ratio of the IC50 values of the sample compound in the presence of NTI to that in the absence of NTI was determined, and the Ke value was calculated in accordance with the following equation.
Ke=[NTI Concentration]/[(IC50 ratio)-1]

A further assay concerns acetic acid writhing. In words: Analgesic action, acetic acid writhing test in mouse. The class given is in vivo, mouse (ddY strain). The following applies: sc, dorsal-subcutaneous, 15 minutes before acetic acid, writhing reactions over 10 minutes. How it is done:
Evaluation of Analgesic Action by Acetic Acid Writhing Test in Mouse
Five-week-old ddY strain mice were subjected to this experiment. A 0.6% acetic acid solution was intraperitoneally administered at a volume of 0.1 ml/10 g·.body weight. Analgesic activity was evaluated with an index which was the number of writhing reactions occurring over 10 minutes from 10 minutes after administration. The drug to be evaluated was dorsal-subcutaneously administered 15 minutes before the administration of acetic acid.

Like-named read-outs stand apart in the source and are kept apart here.

T1 sequence (P32300 whole entry): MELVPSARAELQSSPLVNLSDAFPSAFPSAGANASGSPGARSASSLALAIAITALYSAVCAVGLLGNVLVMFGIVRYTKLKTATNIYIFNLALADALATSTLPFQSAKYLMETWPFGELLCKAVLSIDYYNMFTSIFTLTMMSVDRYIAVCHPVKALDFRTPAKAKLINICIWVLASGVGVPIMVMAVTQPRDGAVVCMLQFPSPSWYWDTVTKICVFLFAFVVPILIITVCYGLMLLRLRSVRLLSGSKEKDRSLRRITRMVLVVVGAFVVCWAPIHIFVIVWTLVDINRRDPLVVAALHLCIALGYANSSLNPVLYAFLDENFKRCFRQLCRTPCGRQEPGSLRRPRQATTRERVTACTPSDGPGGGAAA

Consider `Oc1ccc2c3c1O[C@H]1c4c(c5cccc6c5n4CC6)C[C@@]4(O)[C@@H](C2)N(CC2CC2)CC[C@]314` [Compound 1, 17-Cyclopropylmethyl-6,7-didehydro-4,5α-epoxy-3,14β-dihydroxy-1',7'-ethylene-6,7,2',3'-indolomorphinan], for which, at δ-opioid [1], the pA2 came out at 9.2. In addition, the ED50 in the assay with capsaicin-induced cough came to 9.14 µg/kg. `Oc1ccc2c3c1O[C@H]1c4c(c5ccc6cccc7c6c5n4CC7)C[C@@]4(O)[C@@H](C2)N(CC2CC2)CC[C@]314` [Compound 2, 17-cyclopropylmethyl-6,7-didehydro-4,5α-epoxy-3,14β-dihydroxy-1',3"-ethylene-6',7'-benzo-6,7,2',3'-indolomorphinan] gave a Kb on δ-opioid [1] of 2 nM. In the assay with capsaicin-induced cough, this compound had an ED50 of 1.71 µg/kg.

Turning to `Oc1ccc2c3c1O[C@H]1c4c(c5cccc6c5n4Cc4ccccc4-6)C[C@@]4(O)[C@@H](C2)N(CC2CC2)CC[C@]314` [Compound 3, 17-cyclopropylmethyl-6,7-didehydro-4,5α-epoxy-3,14β-dihydroxy-1',7'-(2",3"-benzotrimethylene)-6,7,2',3'-indolomorphinan], the Kb at δ-opioid [1] is 2.51 nM. The compound also came in with an ED50 with capsaicin-induced cough of 4.37 µg/kg.

As to `Oc1ccc2c3c1O[C@H]1c4c(c5cccc6c5n4CCC6)C[C@@]4(O)[C@@H](C2)N(CC2CC2)CC[C@]314` [Compound 4, 17-cyclopropylmethyl-6,7-didehydro-4,5α-epoxy-3,14β-dihydroxy-1',7'-trimethylene-6,7,2',3'-indolomorphinan], at δ-opioid [1], the Kb is 0.398 nM. This compound gave a 50% effective dose (ED50) in the assay with capsaicin-induced cough of 8.58 µg/kg. `Cc1ccc2c3c1c1c(n3CCC2)[C@@H]2Oc3c(O)ccc4c3[C@@]23CCN(CC2CC2)[C@H](C4)[C@]3(O)C1` [Compound 5, 17-cyclopropylmethyl-6,7-didehydro-4,5α-epoxy-3,14β-dihydroxy-1',7'-trimethylene-4'-methyl-6,7,2',3'-indolomorphinan]: the Kb at δ-opioid [1] was 5.01 nM. Moreover, the median effective dose (ED50) in the assay with capsaicin-induced cough was 20.8 µg/kg. Turning to `COc1ccc2c3c(n4c2c1CCC4)[C@@H]1Oc2c(O)ccc4c2[C@@]12CCN(CC1CC1)[C@H](C4)[C@]2(O)C3` [Compound 6, 17-cyclopropylmethyl-6,7-didehydro-4,5α-epoxy-3,14β-dihydroxy-1',7'-trimethylene-6'-methoxy-6,7,2',3'-indolomorphinan], the Kb on δ-opioid [1] is 3.16 nM. The compound further showed an ED50 with capsaicin-induced cough of 9.43 µg/kg. Compound `Cc1cc2c3c(c1)c1c(n3CCC2)[C@@H]2Oc3c(O)ccc4c3[C@@]23CCN(CC2CC2)[C@H](C4)[C@]3(O)C1` [Compound 7, 17-cyclopropylmethyl-6,7-didehydro-4,5α-epoxy-3,14β-dihydroxy-1',7'-trimethylene-5'-methyl-6,7,2',3'-indolomorphinan] showed an antagonist equilibrium constant (Kb) on δ-opioid [1] of 5.01 nM. This compound displayed a 50% effective dose (ED50) in the assay with capsaicin-induced cough of 16.3 µg/kg. Compound `Oc1ccc2c3c1O[C@H]1c4c(c5cccc6c5n4CCCC6)C[C@@]4(O)[C@@H](C2)N(CC2CC2)CC[C@]314` [Compound 9, 17-cyclopropylmethyl-6,7-didehydro-4,5α-epoxy-3,14β-dihydroxy-1',7'-tetramethylene-6,7,2',3'-indolomorphinan] had a pA2 on δ-opioid [1] of 8.5. Further, the 50% effect level in the assay on capsaicin-induced cough (ED50) was put at a dose of 12.2 µg/kg. Regarding `Oc1ccc2c3c1O[C@H]1c4c(c5cc(F)cc6c5n4CCC6)C[C@@]4(O)[C@@H](C2)N(CC2CC2)CC[C@]314` [Compound 10, 17-cyclopropylmethyl-6,7-didehydro-4,5α-epoxy-3,14β-dihydroxy-1',7'-trimethylene-5'-fluoro-6,7,2',3'-indolomorphinan], on δ-opioid [1], the antagonist dissociation constant (Kb) is 1.58 nM. The compound further displayed an ED50 in the assay with capsaicin-induced cough of 15.7 µg/kg. `COc1ccc2c3c1O[C@H]1c4c(c5cccc6c5n4CCC6)C[C@@]4(O)[C@@H](C2)N(CC2CC2)CC[C@]314` [Compound 11, 17-Cyclopropylmethyl-6,7-didehydro-4,5α-epoxy-3-methoxy-14β-hydroxy-1',7'-trimethylene-6,7,2',3'-indolomorphinan] gave a pA2 on δ-opioid [1] of 8.2. In the assay with capsaicin-induced cough, this compound gave a 50% effective dose (ED50) of 3.43 µg/kg. For `COc1ccc2c3c1c1c(n3CCC2)[C@@H]2Oc3c(O)ccc4c3[C@@]23CCN(CC2CC2)[C@H](C4)[C@]3(O)C1` [Compound 27, 17-cyclopropylmethyl-6,7-didehydro-4,5α-epoxy-3,14β-dihydroxy-1',7'-trimethylene-4'-methoxy-6,7,2',3'-indolomorphinan], the Kb on δ-opioid [1] is 12.6 nM.

Turning to `C=CCCN1CC[C@]23c4c5ccc(O)c4O[C@H]2c2c(c4cccc6c4n2CCC6)C[C@@]3(O)[C@H]1C5` [Compound 28, 17-(3-butenyl)-6,7-didehydro-4,5α-epoxy-3,14β-dihydroxy-1',7'-trimethylene-6,7,2',3'-indolomorphinan], at δ-opioid [2], half-maximal inhibition (IC50) was put at 15.8 nM and the Ke stood at 0.05. This compound came in with an ED50 in the assay on acetic acid writhing of 16700 µg/kg.

Regarding `C=CCN1CC[C@]23c4c5ccc(O)c4O[C@H]2c2c(c4cccc6c4n2CCC6)C[C@@]3(O)[C@H]1C5` [Compound 30, 17-allyl-6,7-didehydro-4,5α-epoxy-3,14β-dihydroxy-1',7'-trimethylene-6,7,2',3'-indolomorphinan], on δ-opioid [1], the Kb was 12.6 nM. For `CN1CC[C@]23c4c5ccc(O)c4O[C@H]2c2c(c4cccc6c4n2CCC6)C[C@@]3(O)[C@H]1C5` [Compound 55, 17-Methyl-6,7-didehydro-4,5α-epoxy-3,14β-dihydroxy-1',7'-trimethylene-6,7,2',3'-indolomorphinan], on δ-opioid [2], the IC50 stood at 18.2 nM and the Ke is given as 0.21.

Turning to `Oc1ccc2c3c1O[C@H]1c4c(c5cccc6c5n4CCC6)C[C@@]4(O)[C@@H](C2)N(CC2CCC2)CC[C@]314` [Compound 56, 17-cyclobutylmethyl-6,7-didehydro-4,5α-epoxy-3,14β-dihydroxy-1',7'-trimethylene-6,7,2',3'-indolomorphinan], on δ-opioid [2], half-maximal inhibition (IC50) was put at 2.96 nM and the Ke was determined as 6.21. On to `Oc1ccc2c3c1O[C@H]1c4c(c5cccc6c5n4CCC6)C[C@@]4(O)[C@@H](C2)N(CCc2ccccc2)CC[C@]314` [Compound 57, 17-phenethyl-6,7-didehydro-4,5α-epoxy-3,14β-dihydroxy-1',7'-trimethylene-6,7,2',3'-indolomorphinan], for which the Ke at δ-opioid [2] came to 0.06. The compound further returned an IC50 on δ-opioid [2] (concentration for 50% inhibition of MVD contraction induced by electric stimulation) of 9.71 nM. In the case of `Oc1ccc2c3c1O[C@H]1c4c(c5cccc6c5n4CCC6)C[C@@]4(O)[C@@H](C2)N(CCc2cccs2)CC[C@]314` [Compound 65, 17-(thiophene-2-ylethyl)-6,7-didehydro-4,5α-epoxy-3,14β-dihydroxy-1',7'-trimethylene-6,7,2',3'-indolomorphinan], on δ-opioid [2], the IC50 is 33.9 nM and the Ke is 0.03. At δ-opioid [1], `CO[C@@]12Cc3c(n4c5c(cccc35)CCC4)[C@@H]3Oc4c(O)ccc5c4[C@@]31CCN(CC1CC1)[C@@H]2C5` [Compound 66, 17-cyclopropylmethyl-6,7-didehydro-4,5α-epoxy-3-hydroxy-14β-methoxy-1',7'-trimethylene-6,7,2',3'-indolomorphinan] had a Kb of 0.316 nM.
